PubChem BioAssay (NCI)
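How tested: cells in 96-well plates exposed to compound for 48 hours at five concentrations. The concentration for full growth arrest is given as TGI.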

Key:
Assay in all cases: NCI tumour cell line growth inhibition, 48 h
786-0 renal = tested on: 786-0 renal
A498 renal = tested on: A498 renal
A549 NSCLC = tested on: A549 NSCLC
ACHN renal = tested on: ACHN renal
BT-549 breast = tested on: BT-549 breast
CAKI-1 renal = tested on: CAKI-1 renal
CCRF-CEM leukemia = tested on: CCRF-CEM leukemia
COLO 205 colon = tested on: COLO 205 colon
DU-145 prostate = tested on: DU-145 prostate
EKVX NSCLC = tested on: EKVX NSCLC
HCC-2998 colon = tested on: HCC-2998 colon
HCT-116 colon = tested on: HCT-116 colon
HCT-15 colon = tested on: HCT-15 colon
HL-60(TB) leukemia = tested on: HL-60(TB) leukemia
HOP-62 NSCLC = tested on: HOP-62 NSCLC
HOP-92 NSCLC = tested on: HOP-92 NSCLC
HS 578T breast = tested on: HS 578T breast
HT29 colon = tested on: HT29 colon
IGROV1 ovarian = tested on: IGROV1 ovarian
K-562 leukemia = tested on: K-562 leukemia
KM12 colon = tested on: KM12 colon
LOX IMVI melanoma = tested on: LOX IMVI melanoma
M14 melanoma = tested on: M14 melanoma
MALME-3M melanoma = tested on: MALME-3M melanoma
MCF7 breast = tested on: MCF7 breast
MDA-MB-231 breast = tested on: MDA-MB-231 breast
MDA-MB-435 = tested on: MDA-MB-435
MDA-N = tested on: MDA-N
MOLT-4 leukemia = tested on: MOLT-4 leukemia
NCI-H226 lung = tested on: NCI-H226 lung
NCI-H23 lung = tested on: NCI-H23 lung
NCI-H460 lung = tested on: NCI-H460 lung
NCI-H522 lung = tested on: NCI-H522 lung
NCI/ADR-RES ovarian = tested on: NCI/ADR-RES ovarian
OVCAR-3 ovarian = tested on: OVCAR-3 ovarian
OVCAR-4 ovarian = tested on: OVCAR-4 ovarian
OVCAR-5 ovarian = tested on: OVCAR-5 ovarian
OVCAR-8 ovarian = tested on: OVCAR-8 ovarian
PC-3 prostate = tested on: PC-3 prostate
RPMI-8226 leukemia = tested on: RPMI-8226 leukemia
RXF 393 renal = tested on: RXF 393 renal
SF-268 CNS = tested on: SF-268 CNS
SF-295 CNS = tested on: SF-295 CNS
SF-539 CNS = tested on: SF-539 CNS
SK-MEL-2 melanoma = tested on: SK-MEL-2 melanoma
SK-MEL-28 melanoma = tested on: SK-MEL-28 melanoma
SK-MEL-5 melanoma = tested on: SK-MEL-5 melanoma
SK-OV-3 ovarian = tested on: SK-OV-3 ovarian
SN12C renal = tested on: SN12C renal
SNB-19 CNS = tested on: SNB-19 CNS
SNB-75 CNS = tested on: SNB-75 CNS
SR leukemia = tested on: SR leukemia
SW-620 colon = tested on: SW-620 colon
T-47D breast = tested on: T-47D breast
TK-10 renal = tested on: TK-10 renal
U251 CNS = tested on: U251 CNS
UACC-257 melanoma = tested on: UACC-257 melanoma
UACC-62 melanoma = tested on: UACC-62 melanoma
UO-31 renal = tested on: UO-31 renal

Cc1ccc(C(=O)C(Cl)C(Cl)c2ccc(C)cc2)cc1 (stereo not drawn)
TGI (786-0 renal): 4.61 µM | TGI (A498 renal): 30 µM | TGI (A549 NSCLC): > 91.8 µM | TGI (ACHN renal): 3.13 µM | TGI (BT-549 breast): 9.2 µM | TGI (CAKI-1 renal): 5.53 µM | TGI (CCRF-CEM leukemia): 4.28 µM | TGI (COLO 205 colon): 4.1 µM | TGI (DU-145 prostate): 15.3 µM | TGI (EKVX NSCLC): 19.5 µM | TGI (HCC-2998 colon): 3.92 µM | TGI (HCT-116 colon): 4 µM | TGI (HCT-15 colon): 3.73 µM | TGI (HL-60(TB) leukemia): 10 µM | TGI (HOP-62 NSCLC): 45.4 µM | TGI (HOP-92 NSCLC): 5.24 µM | TGI (HS 578T breast): 76.3 µM | TGI (HT29 colon): 4.31 µM | TGI (IGROV1 ovarian): 6.34 µM | TGI (K-562 leukemia): 7.15 µM | TGI (KM12 colon): 13.9 µM | TGI (LOX IMVI melanoma): 3.78 µM | TGI (M14 melanoma): 35.5 µM | TGI (MALME-3M melanoma): 32.1 µM | TGI (MCF7 breast): 18.6 µM | TGI (MDA-MB-231 breast): 16.1 µM | TGI (MDA-MB-435): 10.8 µM | TGI (MDA-N): 6.18 µM | TGI (MOLT-4 leukemia): 6.67 µM | TGI (NCI-H226 lung): 11.4 µM | TGI (NCI-H23 lung): 23.9 µM | TGI (NCI-H460 lung): 22.3 µM | TGI (NCI-H522 lung): 10.7 µM | TGI (NCI/ADR-RES ovarian): 6.15 µM | TGI (OVCAR-3 ovarian): 11.2 µM | TGI (OVCAR-4 ovarian): 5.04 µM | TGI (OVCAR-5 ovarian): 33 µM | TGI (OVCAR-8 ovarian): 7.7 µM | TGI (PC-3 prostate): 18.4 µM | TGI (RPMI-8226 leukemia): 7.25 µM | TGI (RXF 393 renal): 23.4 µM | TGI (SF-268 CNS): 21.2 µM | TGI (SF-295 CNS): 23.7 µM | TGI (SF-539 CNS): 6.38 µM | TGI (SK-MEL-2 melanoma): 36.2 µM | TGI (SK-MEL-28 melanoma): 8.68 µM | TGI (SK-MEL-5 melanoma): 6.68 µM | TGI (SK-OV-3 ovarian): 30.7 µM | TGI (SN12C renal): 3.88 µM | TGI (SNB-19 CNS): 23.3 µM | TGI (SNB-75 CNS): 23 µM | TGI (SR leukemia): 6.68 µM | TGI (SW-620 colon): 6.32 µM | TGI (T-47D breast): 4.86 µM | TGI (TK-10 renal): 8.13 µM | TGI (U251 CNS): 12.4 µM | TGI (UACC-257 melanoma): 4.48 µM | TGI (UACC-62 melanoma): 10.9 µM | TGI (UO-31 renal): 3.73 µM

C=CCC(C(=O)O)c1ccccc1 (stereo not drawn)
TGI (786-0 renal): > 100 µM | TGI (A498 renal): > 100 µM | TGI (A549 NSCLC): > 100 µM | TGI (ACHN renal): > 100 µM | TGI (BT-549 breast): > 100 µM | TGI (CAKI-1 renal): > 100 µM | TGI (CCRF-CEM leukemia): > 100 µM | TGI (COLO 205 colon): > 100 µM | TGI (DU-145 prostate): > 100 µM | TGI (EKVX NSCLC): > 100 µM | TGI (HCC-2998 colon): > 100 µM | TGI (HCT-116 colon): > 100 µM | TGI (HCT-15 colon): > 100 µM | TGI (HL-60(TB) leukemia): > 100 µM | TGI (HOP-62 NSCLC): > 100 µM | TGI (HOP-92 NSCLC): > 100 µM | TGI (HS 578T breast): > 100 µM | TGI (HT29 colon): > 100 µM | TGI (IGROV1 ovarian): > 100 µM | TGI (K-562 leukemia): > 100 µM | TGI (KM12 colon): > 100 µM | TGI (LOX IMVI melanoma): > 100 µM | TGI (M14 melanoma): > 100 µM | TGI (MALME-3M melanoma): > 100 µM | TGI (MCF7 breast): > 100 µM | TGI (MDA-MB-231 breast): > 100 µM | TGI (MDA-MB-435): > 100 µM | TGI (MDA-N): > 100 µM | TGI (MOLT-4 leukemia): > 100 µM | TGI (NCI-H226 lung): > 100 µM | TGI (NCI-H23 lung): > 100 µM | TGI (NCI-H460 lung): > 100 µM | TGI (NCI-H522 lung): > 100 µM | TGI (NCI/ADR-RES ovarian): > 100 µM | TGI (OVCAR-3 ovarian): > 100 µM | TGI (OVCAR-4 ovarian): > 100 µM | TGI (OVCAR-5 ovarian): > 100 µM | TGI (OVCAR-8 ovarian): > 100 µM | TGI (PC-3 prostate): > 100 µM | TGI (RPMI-8226 leukemia): > 100 µM | TGI (RXF 393 renal): > 100 µM | TGI (SF-268 CNS): > 100 µM | TGI (SF-295 CNS): > 100 µM | TGI (SF-539 CNS): > 100 µM | TGI (SK-MEL-2 melanoma): > 100 µM | TGI (SK-MEL-28 melanoma): > 100 µM | TGI (SK-MEL-5 melanoma): > 100 µM | TGI (SK-OV-3 ovarian): > 100 µM | TGI (SN12C renal): > 100 µM | TGI (SNB-19 CNS): > 100 µM | TGI (SNB-75 CNS): > 100 µM | TGI (SR leukemia): > 100 µM | TGI (SW-620 colon): > 100 µM | TGI (T-47D breast): > 100 µM | TGI (TK-10 renal): > 100 µM | TGI (U251 CNS): > 100 µM | TGI (UACC-257 melanoma): > 100 µM | TGI (UACC-62 melanoma): > 100 µM | TGI (UO-31 renal): > 100 µM
